{"source": "patent US20260116845A1", "about": "“LIPIDS AND COMPOSITIONS THEREOF” (Kernal Biologics, Inc., priority 2023, published 2026)", "format_in_all_cases": "cell-based", "conditions_in_all_cases": "200 ng Fluc mRNA-LNP, 24 hours; Table 4", "key": {"AML12 Cell Line": {"tested_on": "AML12 Cell Line", "test": "Transfection of AML12 Cell Line with FLuc mRNA LNPs (ONE-Glo EX luciferase signal)", "experimental": "(§1) mRNA encapsulated lipid nanoparticles (mRNA LNPs) were formulated using microfluidic mixing with a PNI Ignite instrument. Briefly, lipids (ionizable: structural: helper: PEG) were dissolved in ethanol and mixed with and aqueous solution of mRNA. These mRNA-loaded dispersions were then neutralized via a buffer exchange with a pre-determined buffer overnight. Afterwards, formed LNPs were concentrated with Amicon filter centrifugation, filtered, concentration of mRNA determined through a ribogreen assay, and frozen at −80° C. until use.\n(§2) Cell lines were grown to confluence in T75 flasks using complete media of DMEM-F12 for AML12 and DMEM for both B16F10 and MC38.K. Cells were plated in a white 96 flat-well plate (AML12=20,000 cells/well, B16F10 and MC38.K=5,000 cells/well) with their respected media. Lipid nanoparticles were first diluted to 50 μg/ml using Opti-MEM and pre-incubated with mouse serum for 30 minutes to give an LNP concentration of 8 μg/ml. Cell media was replaced with Opti-MEM and LNPs were added to cells (200 ng of mRNA-LNP), placed back in the incubator, and allowed to transfect for 24 hours. Afterwards, 100 μl of Promega's ONE-Glo™ EX Luciferase Assay System or Promega's CellTiter-Glo® Luminescent Cell Viability Assay was added and mixed in their respective wells, followed by recording luminescence signals on a Thermo Scientific Varioskan LUX multimode microplate reader. The results are shown in FIG. 1, FIG. 2, FIG. 3, FIG. 4, FIG. 5, FIG. 6, FIG. 10, FIG. 11, and FIG. 21."}, "B16F10 Cell Line": {"tested_on": "B16F10 Cell Line", "test": "Transfection of B16F10 Cell Line with FLuc mRNA LNPs (ONE-Glo EX luciferase signal)", "experimental": "as §1, §2"}, "MC38.K Cell Line": {"tested_on": "MC38.K Cell Line", "test": "Transfection of MC38.K Cell Line with FLuc mRNA LNPs (ONE-Glo EX luciferase signal)", "experimental": "as §1, §2"}}, "data": [{"smiles": "CCCCCCCCC(CCCCCCCC)OC(=O)CCCCCCCN(CCCCCCCC(=O)OCCCCCCCCC(C)C)CCOC(=O)CCCN(C)CCO", "note": "[Compound 5]", "values": [{"measurement": "Total Luciferin Signal (RLU) In Vitro - AML12", "setting": "AML12 Cell Line", "result": "2.04E+05", "unit": "RLU"}, {"measurement": "Total Luciferin Signal (RLU) In Vitro - B16F10", "setting": "B16F10 Cell Line", "result": "1.79E+06", "unit": "RLU"}, {"measurement": "Total Luciferin Signal (RLU) In Vitro - MC38.K", "setting": "MC38.K Cell Line", "result": "4.09E+06", "unit": "RLU"}]}, {"smiles": "CCCCCCCCC(CCCCCCCC)C(=O)OCCCCCCCN(CCCCCC(=O)OCCCCCCCCC(C)C)CCOC(=O)CCCN(C)C", "note": "[Compound 7]", "values": [{"measurement": "Total Luciferin Signal (RLU) In Vitro - AML12", "setting": "AML12 Cell Line", "result": "1.48E+06", "unit": "RLU"}, {"measurement": "Total Luciferin Signal (RLU) In Vitro - B16F10", "setting": "B16F10 Cell Line", "result": "1.11E+06", "unit": "RLU"}, {"measurement": "Total Luciferin Signal (RLU) In Vitro - MC38.K", "setting": "MC38.K Cell Line", "result": "1.35E+06", "unit": "RLU"}]}, {"smiles": "CCCCCCCCC(CCCCCCCC)C(=O)OCCCCCCCN(CCCCCOC(=O)CCCCCCCCC(C)C)CCOC(=O)CCCN(C)C", "note": "[Compound 13]", "values": [{"measurement": "Total Luciferin Signal (RLU) In Vitro - AML12", "setting": "AML12 Cell Line", "result": "1.44E+06", "unit": "RLU"}, {"measurement": "Total Luciferin Signal (RLU) In Vitro - B16F10", "setting": "B16F10 Cell Line", "result": "2.12E+06", "unit": "RLU"}, {"measurement": "Total Luciferin Signal (RLU) In Vitro - MC38.K", "setting": "MC38.K Cell Line", "result": "7.83E+05", "unit": "RLU"}]}, {"smiles": "CCCCCCCCC(CCCCCCCC)OC(=O)CCCCCCCN(CCCCCOC(=O)CCCCCCCCC(C)C)CCOC(=O)CCCN(C)C", "note": "[Compound 15]", "values": [{"measurement": "Total Luciferin Signal (RLU) In Vitro - AML12", "setting": "AML12 Cell Line", "result": "1.53E+06", "unit": "RLU"}, {"measurement": "Total Luciferin Signal (RLU) In Vitro - B16F10", "setting": "B16F10 Cell Line", "result": "1.97E+06", "unit": "RLU"}, {"measurement": "Total Luciferin Signal (RLU) In Vitro - MC38.K", "setting": "MC38.K Cell Line", "result": "6.94E+05", "unit": "RLU"}]}, {"smiles": "CCCCCCCCC(CCCCCCCC)OC(=O)CCCCCN(CCCCCC(=O)OCCCCCCCCCCC(C)C)CCOC(=O)CCCN(C)C", "note": "[Compound 17]", "values": [{"measurement": "Total Luciferin Signal (RLU) In Vitro - AML12", "setting": "AML12 Cell Line", "result": "6.34E+05", "unit": "RLU"}, {"measurement": "Total Luciferin Signal (RLU) In Vitro - B16F10", "setting": "B16F10 Cell Line", "result": "2.64E+06", "unit": "RLU"}, {"measurement": "Total Luciferin Signal (RLU) In Vitro - MC38.K", "setting": "MC38.K Cell Line", "result": "1.15E+06", "unit": "RLU"}]}, {"smiles": "CCCCCCCCC(CCCCCCCC)OC(=O)CCCCCCCN(CCO)CCCCCCCC(=O)OCCCCCCCCF", "note": "[Compound 21]", "values": [{"measurement": "Total Luciferin Signal (RLU) In Vitro - AML12", "setting": "AML12 Cell Line", "result": "4.09E+05", "unit": "RLU"}, {"measurement": "Total Luciferin Signal (RLU) In Vitro - B16F10", "setting": "B16F10 Cell Line", "result": "1.03E+05", "unit": "RLU"}, {"measurement": "Total Luciferin Signal (RLU) In Vitro - MC38.K", "setting": "MC38.K Cell Line", "result": "1.16E+06", "unit": "RLU"}]}, {"smiles": "CCCCCCCCC(CCCCCCCC)OC(=O)CCCCCCCN(CCCCCCCC(=O)OCCCCCCCCF)CCOC(=O)CCCN(C)C", "note": "[Compound 22]", "values": [{"measurement": "Total Luciferin Signal (RLU) In Vitro - AML12", "setting": "AML12 Cell Line", "result": "1.24E+05", "unit": "RLU"}, {"measurement": "Total Luciferin Signal (RLU) In Vitro - B16F10", "setting": "B16F10 Cell Line", "result": "5.04E+05", "unit": "RLU"}, {"measurement": "Total Luciferin Signal (RLU) In Vitro - MC38.K", "setting": "MC38.K Cell Line", "result": "2.65E+06", "unit": "RLU"}]}, {"smiles": "CCCCCCCCC(CCCCCCCF)OC(=O)CCCCCCCN(CCO)CCCCCC(=O)OCCCCCCCCC(C)C", "note": "(stereo not drawn) [Compound 28]", "values": [{"measurement": "Total Luciferin Signal (RLU) In Vitro - AML12", "setting": "AML12 Cell Line", "result": "1.65E+05", "unit": "RLU"}, {"measurement": "Total Luciferin Signal (RLU) In Vitro - B16F10", "setting": "B16F10 Cell Line", "result": "2.34E+05", "unit": "RLU"}, {"measurement": "Total Luciferin Signal (RLU) In Vitro - MC38.K", "setting": "MC38.K Cell Line", "result": "5.09E+05", "unit": "RLU"}]}, {"smiles": "CCCCCCCCC(CCCCCCCC)OC(=O)CCCCCCCN(CCO)CCCCCCCC(=O)OC(CCCCCCCC)CCCCCCCC", "note": "[Compound 44]", "values": [{"measurement": "Total Luciferin Signal (RLU) In Vitro - AML12", "setting": "AML12 Cell Line", "result": "8.87E+05", "unit": "RLU"}, {"measurement": "Total Luciferin Signal (RLU) In Vitro - B16F10", "setting": "B16F10 Cell Line", "result": "1.26E+06", "unit": "RLU"}, {"measurement": "Total Luciferin Signal (RLU) In Vitro - MC38.K", "setting": "MC38.K Cell Line", "result": "3.17E+06", "unit": "RLU"}]}, {"smiles": "CCCCCCCCC(CCCCCCCC)C(=O)OCCCCCCCN(CCO)CCCCCCCOC(=O)C(CCCCCCCC)CCCCCCCC", "note": "[Compound 46]", "values": [{"measurement": "Total Luciferin Signal (RLU) In Vitro - AML12", "setting": "AML12 Cell Line", "result": "1.30E+06", "unit": "RLU"}, {"measurement": "Total Luciferin Signal (RLU) In Vitro - B16F10", "setting": "B16F10 Cell Line", "result": "1.48E+06", "unit": "RLU"}, {"measurement": "Total Luciferin Signal (RLU) In Vitro - MC38.K", "setting": "MC38.K Cell Line", "result": "4.59E+06", "unit": "RLU"}]}, {"smiles": "CCCCCCCCCC(=O)OCCCCCCCN(CCO)CCCCCCCOC(=O)CCCCCCCCC", "note": "[Compound 47]", "values": [{"measurement": "Total Luciferin Signal (RLU) In Vitro - AML12", "setting": "AML12 Cell Line", "result": "3.52E+04", "unit": "RLU"}, {"measurement": "Total Luciferin Signal (RLU) In Vitro - B16F10", "setting": "B16F10 Cell Line", "result": "3.88E+04", "unit": "RLU"}, {"measurement": "Total Luciferin Signal (RLU) In Vitro - MC38.K", "setting": "MC38.K Cell Line", "result": "5.18E+04", "unit": "RLU"}]}, {"smiles": "CC(C)CCCCCCCCC(=O)OCCCCCCCN(CCO)CCCCCCCOC(=O)CCCCCCCCC(C)C", "note": "[Compound 48]", "values": [{"measurement": "Total Luciferin Signal (RLU) In Vitro - AML12", "setting": "AML12 Cell Line", "result": "3.31E+06", "unit": "RLU"}, {"measurement": "Total Luciferin Signal (RLU) In Vitro - B16F10", "setting": "B16F10 Cell Line", "result": "4.45E+06", "unit": "RLU"}, {"measurement": "Total Luciferin Signal (RLU) In Vitro - MC38.K", "setting": "MC38.K Cell Line", "result": "2.17E+06", "unit": "RLU"}]}]}
